SMILES strings stand for the structures.

Experimental findings from US20240360067A1, “DERIVATIVES OF ITACONIC ACID AND THEIR USE AS ANTI-INFLAMMATORY AGENTS” (Sitryx Therapeutics Limited, priority 2021, published 2024) are described below.

The nature of data set [1]: Hepatocyte stability assay, human. In kind it is in vitro ADME. The conditions noted are these: 10 μM compound, 0.5×10^6 cells/mL, 60 min; for CIint: Human hepatocytes; for half-life at 10 μM: cryo-preserved hepatocytes, read-out: T½. From the text:
(§1) Defrosted cryo-preserved hepatocytes (viability >70%) were used to determine the metabolic stability of a compound via calculation of intrinsic clearance (CIint; a measure of the removal of a compound from the liver in the absence of blood flow and cell binding). Clearance data are particularly important for in vitro work as they can be used in combination with in vivo data to predict the half-life and oral bioavailability of a drug.
(§2) The metabolic stability in hepatocytes assay involved a time-dependent reaction using both positive and negative controls. The cells must be pre-incubated at 37° C. then spiked with test compound (and positive control); samples taken at pre-determined time intervals were analysed to monitor the change in concentration of the initial drug compound over 60 minutes. A buffer incubation reaction (with no hepatocytes present) acted as a negative control and two cocktail solutions, containing compounds with known high and low clearance values (verapamil/7-hydroxycoumarin and propranolol/diltiazem), acted as positive controls. • 1. The assay was run with a cell concentration of 0.5×10^6 cells/mL in Leibovitz buffer. • 2. All compounds and controls were run in duplicate. • 3. Compound concentration was 10 μM. • 4. All compounds and controls were incubated with both cells and buffer to show turnover is due to hepatic metabolism. • 5. All wells on the incubation plate had 326.7 μL of either cells or buffer added. • 6. Prior to assay, cell and buffer-only incubation plates were preincubated for 10 mins at 37° C. • 7. The assay was initiated by adding compounds, 3.3 μL of 1 mM in 10% DMSO-90% Buffer; final DMSO concentration is 0.1%. • 8. Samples were taken at regular timepoints (0, 5, 10, 20, 40, 60 min) until 60 mins. • 9. Sample volume was 40 μL and added to 160 μL of crash solvent (acetonitrile with internal standard) and stored on ice. • 10. At the end of the assay, the crash plates were centrifuged at 3500 rpm for 20 mins at 4° C. • 11. 80 μL of clear supernatant was removed and mixed with 80 μL of deionised water before being analysed by LC-MS/MS.
(§3) Raw LC-MS/MS data were exported to, and analysed in, Microsoft Excel for determination of intrinsic clearance. The percentage remaining of a compound was monitored using the peak area of the initial concentration as 100%. Intrinsic clearance and half-life values were calculated using a graph of the natural log of percentage remaining versus the time of reaction in minutes.

The next data set relates to IL-6. In words: THP-1 AlphaLISA IL-6 cytokine assay (PMA-differentiated THP-1, LPS then nigericin). In kind it is cell-based. The conditions noted are these: Homo sapiens; differentiated THP-1 cells; 30 min pre-incubation, LPS 24 hr, nigericin 1 hour. The protocol:
(§4) Measuring Inhibitory Effects on IL-1β, and IL-6 Cytokine Output from THP-1s
(§5) The cytokine inhibition profiles of compounds of formula (I) were determined in a differentiated THP-1 cell assay. All assays were performed in RPMI-1640 growth medium (Gibco), supplemented with 10% fetal bovine serum (FBS; Gibco), 1% penicillin-streptomycin and 1% sodium pyruvate unless specified otherwise. The IL-1β and IL-6 cytokine inhibition assays were each run in a background of differentiated THP-1 cells as described below. All reagents described were from Sigma-Aldrich unless specified otherwise. Compounds were prepared as 10 mM DMSO stocks.
(§6) THP-1 cells were expanded as a suspension up to 80% confluence in appropriate growth medium. Cells were harvested, suspended, and treated with an appropriate concentration of phorbol 12-myristate 13-acetate (PMA) over a 72 hr period (37° C./5% CO2).
(§7) Following 72 hrs of THP-1 cell incubation, cellular medium was removed and replaced with fresh growth media containing 1% of FBS. Working concentrations of compounds were prepared separately in 10% FBS treated growth medium and pre-incubated with the cells for 30 minutes (37° C./5% CO2). Following the 30 minute compound pre-incubation, THP-1s were treated with an appropriate concentration of LPS and the THP-1s were subsequently incubated for a 24 hr period (37° C./5% CO2). An appropriate final concentration of Nigericin was then dispensed into the THP-1 plates and incubated for 1 hour (37° C./5% CO2) before THP-1 supernatants were harvested and collected in separate polypropylene 96-well holding plates.
(§8) Reagents from each of the IL-1β and IL-6 commercial kits (Perkin Elmer) were prepared and run according to the manufacturer's instructions. Subsequently, fluorescence signal detection in a microplate reader was measured (EnVision® Multilabel Reader, Perkin Elmer).
(§9) Percentage inhibition was calculated per cytokine by normalizing the sample data to the high and low controls used within each plate (+/−LPS respectively).
On the technique in general: Alpha assays give light when donor and acceptor beads are brought close together.

Another data set has as its system NRF2. In words: NRF2 activation assay (DiscoverX PathHunter NRF2 translocation kit, U2OS cells). The conditions noted are these: Homo sapiens; for Emax: U2OS, normalised to dimethyl fumarate high control; for EC50: U2OS PathHunter cells, 6 hours. The format is cell-based.
The nature of data set [2]: Hepatocyte stability assay, mouse. The format is in vitro ADME. The conditions noted are these: 10 μM compound, 0.5×10^6 cells/mL, 60 min; for CIint: Mouse hepatocytes; for half-life at 10 μM: cryo-preserved hepatocytes, read-out: T½.
Source text: as §1, §2, §3

A further data set has as its system IL-1β. In words: THP-1 AlphaLISA IL-1β cytokine assay (PMA-differentiated THP-1, LPS then nigericin). The format is cell-based. The conditions noted are these: 30 min pre-incubation, LPS 24 hr, nigericin 1 hour. The method, then:
as §4, §5, §6, §7, §8, §9

[3] abbreviates: Homo sapiens, THP-1, differentiated THP-1 cells.

Turning to `C=C(CC(=O)O)C(=O)OC1(c2ccc(C(F)(F)F)cc2)CCC1` [Example 2, 3-((1-(4-(trifluoromethyl)phenyl)cyclobutoxy)carbonyl)but-3-enoic acid], the CIint in data set [1] was 9 μL min^−1 10^−6 cells; in data set [2], <3 μL min^−1 10^−6 cells. Also, the half-life at 10 μM in data set [1] is 126 min; in data set [2], > 460 min. For the same compound, the IC50 with IL-6 was > 100 µM; in the data set on IL-1β (setting [3]), 4.4 µM. For the same compound, the Emax in the data set with NRF2 (+GSH) worked out at 14%; in the data set on NRF2 (−GSH), 26%. Besides, the EC50 in the data set with NRF2 (+GSH) and in the data set on NRF2 (−GSH) was > 100 µM in each case.

Consider `C=C(CC(=O)OC)C(=O)OC1(c2ccc(C(F)(F)F)cc2)CCC1` [Example 8, 4-methyl 1-(1-(4-(trifluoromethyl)phenyl)cyclobutyl) 2-methylenesuccinate], for which the CIint in data set [1] and in data set [2] was >460 μL min^−1 10^−6 cells throughout. For the same compound, the half-life at 10 μM in data set [1] and in data set [2] was < 3 min in each case. The IC50 was 10.8 µM with IL-6 and 7.6 µM in the data set on IL-1β (setting [3]). Further, the Emax in the data set with NRF2 (+GSH) came out at 38%; with NRF2 (−GSH) it was 51%. For the same compound, the 50% effective concentration (EC50) is > 100 µM in the data set with NRF2 (+GSH) and 51 µM in the data set with NRF2 (−GSH).

Turning to `C=C(CC(N)=O)C(=O)OC1(c2ccc(C(F)(F)F)cc2)CCC1` [Example 11, 1-(4-(trifluoromethyl)phenyl)cyclobutyl 4-amino-2-methylene-4-oxobutanoate], the CIint in data set [1] is 9 μL min^−1 10^−6 cells; in data set [2] it was 162 μL min^−1 10^−6 cells. For the same compound, the half-life at 10 μM worked out at 139 min in data set [1] and 9 min in data set [2]. Also, the IC50 with IL-6 amounted to 13.2 µM; in the data set with IL-1β (setting [3]), 9.9 µM. Further, the Emax is 100% with NRF2 (+GSH) and 117% with NRF2 (−GSH). The results for the EC50 in the data set with NRF2 (+GSH) and in the data set on NRF2 (−GSH) were 45.7 µM and 33.1 µM, respectively.

Regarding `C=C(CC(=O)NCCN1CCOCC1)C(=O)OC1(c2ccc(C(F)(F)F)cc2)CCC1` [Example 13, 1-(4-(trifluoromethyl)phenyl)cyclobutyl 2-methylene-4-((2-morpholinoethyl)amino)-4-oxobutanoate], the CIint is given as 126 μL min^−1 10^−6 cells in data set [1] and 516 μL min^−1 10^−6 cells in data set [2]. For the same compound, the half-life at 10 μM worked out at 12 min in data set [1] and 4 min in data set [2]. For the same compound, the IC50 in the data set with IL-6 is 8.1 µM; in the data set with IL-1β (setting [3]) it was 6.5 µM; with IL-1β (differentiated THP-1 cells), 8.5 µM. In addition, the Emax in the data set with NRF2 (+GSH) was 84%; in the data set with NRF2 (−GSH) it was 174%. For the same compound, the EC50 in the data set on NRF2 (+GSH) stood at 48 µM; with NRF2 (−GSH) it was 38.8 µM.

With `C=C(CC(=O)NC1CCN(C)CC1)C(=O)OC1(c2ccc(C(F)(F)F)cc2)CCC1` [Example 14, 1-(4-(trifluoromethyl)phenyl)cyclobutyl 2-methylene-4-((1-methylpiperidin-4-yl)amino)-4-oxobutanoate], the CIint is recorded as 40 μL min^−1 10^−6 cells in data set [1] and 108 μL min^−1 10^−6 cells in data set [2]. Moreover, the half-life at 10 μM turned out to be 38 min in data set [1] and 12 min in data set [2]. In addition, the results for the IC50 in the data set on IL-6 and with IL-1β (setting [3]) were 3.9 µM and 5.2 µM, respectively. The figures for the maximum response (Emax) with NRF2 (+GSH) and with NRF2 (−GSH) were 95% and 80%, respectively. The EC50 in the data set with NRF2 (+GSH) worked out at 49.4 µM; in the data set on NRF2 (−GSH) it was 14.6 µM.

As to `C=C(CC(=O)NCc1ncc[nH]1)C(=O)OC1(c2ccc(C(F)(F)F)cc2)CCC1` [Example 15, 1-(4-(trifluoromethyl)phenyl)cyclobutyl 4-(((1H-imidazol-2-yl)methyl)amino)-2-methylene-4-oxobutanoate], the CIint was found to be 92 μL min^−1 10^−6 cells in data set [1] and 508 μL min^−1 10^−6 cells in data set [2]. In addition, the half-life at 10 μM amounted to 14 min in data set [1] and 3 min in data set [2]. Further, the half-maximal inhibitory concentration (IC50) worked out at 7.3 µM in the data set with IL-6 and 5.3 µM in the data set on IL-1β (setting [3]). Moreover, the Emax is 86% with NRF2 (+GSH) and 131% in the data set with NRF2 (−GSH). Also, the EC50 in the data set on NRF2 (+GSH) was determined as 51.3 µM; in the data set with NRF2 (−GSH), 26.3 µM.

With `C=C(CC(=O)NC1CS(=O)(=O)C1)C(=O)OC1(c2ccc(C(F)(F)F)cc2)CCC1` [Example 18, 1-(4-(trifluoromethyl)phenyl)cyclobutyl 4-((1,1-dioxidothietan-3-yl)amino)-2-methylene-4-oxobutanoate], the CIint was found to be 31 μL min^−1 10^−6 cells in data set [1] and 92 μL min^−1 10^−6 cells in data set [2]. Besides, the values for the half-life at 10 μM in data set [1] and in data set [2] were 52 min and 14 min, respectively. Also, the IC50 with IL-6 was 3.8 µM; in the data set with IL-1β (setting [3]), 5.2 µM. Also, the values for the Emax in the data set with NRF2 (+GSH) and with NRF2 (−GSH) were 70% and 90%, respectively. The results for the EC50 with NRF2 (+GSH) and in the data set on NRF2 (−GSH) were 39.4 µM and 14.7 µM, respectively.

In the case of `C=C(CC(=O)NCCO)C(=O)OC1(c2ccc(C(F)(F)F)cc2)CCC1` [Example 19, 1-(4-(trifluoromethyl)phenyl)cyclobutyl 4-((2-hydroxyethyl)amino)-2-methylene-4-oxobutanoate], the CIint came out at 32 μL min^−1 10^−6 cells in data set [1] and 161 μL min^−1 10^−6 cells in data set [2]. For the same compound, the half-life at 10 μM in data set [1] is 48 min; in data set [2], 13 min. The IC50 was determined as 3.8 µM in the data set with IL-6 and 2.5 µM in the data set with IL-1β (setting [3]). Besides, the values for the Emax in the data set on NRF2 (+GSH) and in the data set on NRF2 (−GSH) were 102% and 210%, respectively. For the same compound, the EC50 is 50.7 µM in the data set on NRF2 (+GSH) and 40.2 µM in the data set on NRF2 (−GSH).

In the case of `C=C(CC(=O)NC1CCOCC1)C(=O)OC1(c2ccc(C(F)(F)F)cc2)CCC1` [Example 20, 1-(4-(trifluoromethyl)phenyl)cyclobutyl 2-methylene-4-oxo-4-((tetrahydro-2H-pyran-4-yl)amino)butanoate], the CIint in data set [1] is 85 μL min^−1 10^−6 cells; in data set [2], 668 μL min^−1 10^−6 cells. The half-life at 10 μM in data set [1] was 18 min; in data set [2], 3 min. The IC50 is 2.6 µM in the data set on IL-6 and 2.9 µM in the data set with IL-1β (setting [3]). Also, the Emax turned out to be 63% in the data set on NRF2 (+GSH) and 101% in the data set on NRF2 (−GSH). Besides, the EC50 in the data set with NRF2 (+GSH) amounted to 31.4 µM; with NRF2 (−GSH) it was 14.4 µM.

Take `C=C(CC(=O)NCC(N)=O)C(=O)OC1(c2ccc(C(F)(F)F)cc2)CCC1` [Example 21, 1-(4-(trifluoromethyl)phenyl)cyclobutyl 4-((2-amino-2-oxoethyl)amino)-2-methylene-4-oxobutanoate]: the CIint in data set [1] amounted to 37 μL min^−1 10^−6 cells; in data set [2], 100 μL min^−1 10^−6 cells. The values for the half-life at 10 μM in data set [1] and in data set [2] were 42 min and 21 min, respectively. Moreover, the figures for the IC50 in the data set on IL-6 and in the data set with IL-1β (setting [3]) were 3.9 µM and 7.2 µM, respectively. For the same compound, the Emax came to 86% in the data set with NRF2 (+GSH) and 184% in the data set on NRF2 (−GSH). In addition, the EC50 in the data set on NRF2 (+GSH) came out at 55 µM; with NRF2 (−GSH) it was 38 µM.

A word on the IC50: it is the concentration that gives 50% inhibition. Low readings indicate greater potency, high ones weaker potency. Broadly, the Emax is the greatest response seen or fitted, relative to the assay's reference. One may read the EC50 as the midpoint of the concentration-response curve. A high value points to lower potency in that assay.
